# According to patent US7838557B2, “Concentrated X-ray contrast media can act as universal antigens and can inhibit or prevent allergic reactions” (priority 2001, dated 2010):
# Experiments:
# IgG anti-γ-globulin = assay: Passive red blood cell hemagglutination inhibition, γ-globulin vs. anti-γ-globulin; type: binding; conditions: γ-globulin bound to sheep RBC; incubation 2-3 hours at room temperature
# Excerpt: Employing a highly sensitive test for antibody-antigen complexing (passive red blood cell hemagglutination inhibition), we found what we consider the answer to this problem. Ovalbumin and gamma globulin (Sigma) were bound to glutaraldehyde stabilized sheep red blood cells (Inter-Cell Technologies, Hopewell, N.J.). Bis-diazotized benzidine was used to bind the ovalbumin to the RBC's. The gamma-globulin bound directly. In both the case of the ovalbumin and the gamma-globulin, the sensitized red blood cells were allowed to incubate with each of the contrast media (methylglucamine iothalamate [CONRAY; 282 mg iodine/ml, Mallinckrodt Medical, St. Louis Mo.], ioversol [[…] 320; 320 mg iodine/ml, […]; 320 mg iodine/ml, Mallinckrodt] and […]; 300 mg iodine/ml, Schering Pharmaceutical; […] When competition occurred, there would be a diminished diameter of the agglutination, depending on the antibody titer that could be compared to a control, where saline was substituted for the CM. With complete competition (inhibition), no agglutination would be visible and the RBCs would form a small button of cells at the bottom of the microtiter well. Visible agglutination was evaluated on a 1+ to 4+ basis. Studies were also carried out where the RBCs were incubated with CM before or after binding of the antigen to BDB or the RBC to determine whether competition of the CM with the antigen might actually represent displacement of the […] from the RBC surface. It was discovered that contrast media can in fact act as an antigen and combine with antibodies ([…]. and […]., Academic Radiology 1998, 5 (suppl. 1; […]-[…])). This was shown when, at various concentrations, individual contrast media would inhibit the agglutination of RBC-attached ovalbumin or RBC-attached gamma globulin in the presence of their respective antibodies, thus resulting in a button of cells, rather than agglutination, in the bottom of the microtiter well.
# Brown Norway Rats = assay: Mean arterial blood pressure after i.v. contrast media injection, Brown Norway rats; type: in vivo; conditions: mean ± S.E.
# Sprague Dawley Rats = assay: Mean arterial blood pressure after i.v. contrast media injection, Sprague Dawley rats; type: in vivo; conditions: mean ± S.E.
# [1] = tested on: ovalbumin-sensitized Sprague Dawley rats; assay: Blood pressure in ovalbumin anaphylaxis of ovalbumin-sensitized rats; type: in vivo; conditions: CM i.v. 6 hours before, 45 minutes before, concurrently, or 10 minutes after 10 mg ovalbumin
# Method: To further substantiate the concept that contrast media, acting as pseudoantigens, could interfere with existing antigen-antibody reactions, an experiment was conducted where a series of rats were sensitized to ovalbumin and later challenged the rats by intravenous injections of ovalbumin.
# Varying CM or other materials were injected into the tail vein of anesthetized Sprague Dawley rats ([…]). The CM tested were IOXAGLATE and IODIXANOL. Both are CM dimers and IOXAGLATE is ionic and IODIXANOL is nonionic. The CM injections were done 12 to 14 days after sensitization of the rats by intraperitoneal injections of 1 mg of ovalbumin in normal saline. A Propaq blood pressure apparatus was connected to polyethylene catheters inserted into a carotid artery to monitor mean arterial blood pressure. Injection rates were 6 ml/kg/min. The CM were injected I.V. either 6 hours before, 45 minutes before, concurrent with, or 10 minutes post challenge of a dose of 10 mg of ovalbumin. Saline injections, equiosmolar to the CM and injected at the same time intervals served as controls.
# [2] = tested on: ragweed pollen sensitized rats; assay: Experimental allergic conjunctivitis, ragweed pollen sensitized rats; type: in vivo, Sprague-Dawley rats
# Excerpt: In this Example, the potential protective effect of a contrast material on experimental allergic conjunctivitis induced in rats was examined. The rats were sensitized systemically to either ovalbumin or ragweed pollen and 10 to 12 days later obtained local sensitization by several applications of the respective antigens to the eyes. The rats were then challenged with a larger dose of the antigen accompanied by either the contrast media or equiosmolal saline and sacrificed at several different time periods for examination of the excised eyes.
# The tissues were examined on a “blinded” basis and assigned a 0 to 3+ rating based on the perceived abundance of inflammatory cells (mostly lymphocytes, but also including eosinophils, polymorphonuclear leukocytes, and mast cells). The ovalbumin experiment was carried out at 3 hours post antigen application (8 rats) and at 24 hours post application (8 rats) and the ragweed study was carried out at 1 hour post application (8 rats) and at 24 hours post application (8 rats). The cumulative scores for the ratings in each set of rats were recorded. Details of the ovalbumin study are as follows.
# A ragweed pollen experiment also involved 16 Sprague-Dawley rats born approximately 2 months previously and sensitized on Day 1 with SQ injections of 0.1 ml of N. saline containing 100 μg of ragweed pollen (P-0146, Sigma) and 20 mg alum. On Day 14, 20 μl of saline (left eye) or 20 μl of IODIXANOL (right eye) were applied to the eyes. 15 min. later, both eyes were treated with 10 μl of phosphate buffered saline containing 1.5 mg of ragweed pollen. The process was done 4 times at 15 min. intervals.
# [3] = tested on: Brown-Norway and Sprague Dawley rats; assay: Blood pressure changes in rats after H-1 blocker, L-NAME or contrast media (text and FIGS. 4A-4B); type: in vivo
# [4] = tested on: rats injected intradermally with serum from ovalbumin sensitized rats; assay: Passive cutaneous anaphylaxis (PCA), Evans Blue extravasation; type: in vivo; conditions: for Stain (mm ± S.E./10): 50 μl sensitized serum
# Method: In a further test of the ability of appropriate contrast media to mitigate ongoing antigen-antibody reactions, a passive cutaneous anaphylaxis (PCA) experiment was performed in rats.
# In this Example, rats were injected intradermally with 50 μL of serum from ovalbumin sensitized rats and varying mixtures of Na/meglumine iothalamate (MD-76; 370 mg iodine/ml, Mallinckrodt) and normal saline to a total of 50 μl. This was followed in 5-7 hours by intravenous injections of 1 mg ovalbumin along with Evans Blue and then measurement of the subsequent extravasation of the blue coloring in the area under the skin. Evans Blue binds to serum albumin and the diameter of the area of blue indicates extravasation of albumin secondary to specific antigen-antibody reactions. […] In this case, where large amounts of CM are available due to local deposition, even an ionic monomer was sufficient to block specific antibody-antigen reactivity (see Table III below).
compound,measurement,setting,value
"CNC(=O)c1c(I)c(NC(C)=O)c(I)c(C(=O)O)c1I.CNC[C@H](O)[C@@H](O)[C@H](O)[C@H](O)CO [Conray, methylglucamine iothalamate]",Lowest concentration of CM showing a 2+ or 3+ inhibition of 1/500 IgG anti-γ-globulin,IgG anti-γ-globulin,28.2 mg/mL
same,Net decrease in mean arterial blood pressure,Brown Norway Rats; Monomers (4 ml),decrease (37 ± 1.6) (3) mm Hg
same,Net decrease in mean arterial blood pressure,Sprague Dawley Rats; Monomers (4 ml),decrease (55 ± 5.0) (3) mm Hg
"CNC(=O)c1c(I)c(C(=O)NCC(=O)Nc2c(I)c(C(=O)O)c(I)c(C(=O)NCCO)c2I)c(I)c(N(C)C(C)=O)c1I [HEXABRIX, IOXAGLATE]",Lowest concentration of CM showing a 2+ or 3+ inhibition of 1/500 IgG anti-γ-globulin,IgG anti-γ-globulin,8.0 mg/mL
same,Net increase in mean arterial blood pressure,Brown Norway Rats; Dimers (8 ml),increase (31 ± 4.6) (3) mm Hg
same,"Return of blood pressure after ovalbumin challenge, compared with equiosmolar saline",[1],more rapid return of the blood pressure to normal levels
CC(=O)N(CC(O)CN(C(C)=O)c1c(I)c(C(=O)NCC(O)CO)c(I)c(C(=O)NCC(O)CO)c1I)c1c(I)c(C(=O)NCC(O)CO)c(I)c(C(=O)NCC(O)CO)c1I (centres unmarked) [IODIXANOL],"Return of blood pressure after ovalbumin challenge, compared with equiosmolar saline",[1],more rapid return of the blood pressure to normal levels
same,Cumulative score of inflammatory cell infiltration (0 to 3+ rating per eye),"[2]; 1 HOUR READING, 20 μl applied to the eye before ragweed pollen, 8 rats",0
same,Protection against ragweed pollen conjunctivitis (in words),[2]; local application,provides a degree of protection
same,Number of zero scores in the group,"[2]; no absolute zeros in the saline group, study (ragweed or combined) not specified",3
"CN(C(=O)CC(=O)N(C)c1c(I)c(C(=O)NC(CO)C(O)CO)c(I)c(C(=O)NC(CO)C(O)CO)c1I)c1c(I)c(C(=O)NC(CO)C(O)CO)c(I)c(C(=O)NC(CO)C(O)CO)c1I (centres unmarked) [ISOVIST, IOTROLAN]",Lowest concentration of CM showing a 2+ or 3+ inhibition of 1/500 IgG anti-γ-globulin,IgG anti-γ-globulin,14.0 mg/mL
same,Net increase in mean arterial blood pressure,Brown Norway Rats; Dimers (4 ml),increase (18 ± 0.00 (1) mm Hg
same,Net increase in mean arterial blood pressure,Brown Norway Rats; Dimers (8 ml),increase (20 ± 2.0) (4) mm Hg
same,Net increase in mean arterial blood pressure,Sprague Dawley Rats; Dimers (8 ml),increase (11 ± 4.6) (3) mm Hg
same,Change in blood pressure (in words),[3]; production of nitric oxide blocked by L-NAME,can no longer produce an elevation in blood pressure
same,Change in blood pressure (in words),[3]; substance injected by itself,produces an elevation in pressure
"C[C@H](O)C(=O)Nc1c(I)c(C(=O)NC(CO)CO)c(I)c(C(=O)NC(CO)CO)c1I [Isovue, IOPAMIDOL]",Net decrease in mean arterial blood pressure,Brown Norway Rats; Monomers (8 ml),decrease (36 ± 8.6) (2) mm Hg
same,Net decrease in mean arterial blood pressure,Sprague Dawley Rats; Monomers (8 ml),decrease (27 ± 8.6) (2) mm Hg
"COC(=O)[C@@H](N)CCCNC(=N)N[N+](=O)[O-] [L-NAME, NG-nitro-L-arginine methyl ester]",Change in blood pressure (in words),[3]; substance injected by itself,immediate elevation in blood pressure
CNC(=O)c1c(I)c(NC(C)=O)c([125I])c(C(=O)[O-])c1[125I].[Na+] [Na LOTHALAMATE],Lowest concentration of CM showing a 2+ or 3+ inhibition of 1/500 IgG anti-γ-globulin,IgG anti-γ-globulin,28.2 mg/mL
"O=C(NCC(O)CO)c1c(I)c(C(=O)NCC(O)CO)c(I)c(N(CCO)C(=O)CO)c1I (centres unmarked) [OPTIRAY, IOVERSOL]",Lowest concentration of CM showing a 2+ or 3+ inhibition of 1/500 IgG anti-γ-globulin,IgG anti-γ-globulin,16.0 mg/mL
same,Net decrease in mean arterial blood pressure,Brown Norway Rats; Monomers (4 ml),decrease (20 ± 1.5) (3) mm Hg
same,Net decrease in mean arterial blood pressure,Brown Norway Rats; Monomers (8 ml),decrease (33 ± 2.8) (3) mm Hg
same,Net decrease in mean arterial blood pressure,Sprague Dawley Rats; Monomers (8 ml),decrease (22 ± 0.0) (1) mm Hg
"CN(C)CCOC(c1ccccc1)c1ccccc1 [diphenyhydramine, diphenhydramine]",Change in blood pressure (in words),[3]; substance injected by itself,immediate elevation in blood pressure
Na/meglumine iothalamate [MD-76],Stain (mm ± S.E./10),"[4]; Site 1: 50 μl CM, 0 μl saline",7.5 ± 7 mm
same,Stain (mm ± S.E./10),"[4]; Site 2: 40 μl CM, 10 μl saline",10.0 ± 10 mm
same,Stain (mm ± S.E./10),"[4]; Site 3: 30 μl CM, 20 μl saline",17.5 ± 10 mm
same,Stain (mm ± S.E./10),"[4]; Site 4: 20 μl CM, 30 μl saline",62.5 ± 28 mm
same,Stain (mm ± S.E./10),"[4]; Site 5: 10 μl CM, 40 μl saline",115 ± 60 mm
same,Stain,"[4]; controls with nonsensitized serum (3 rats), 0, 25, and 50 μl CM",no stain
meglumine/sodium diatrizoate [Angiovist],Net decrease in mean arterial blood pressure,Brown Norway Rats; Monomers (8 ml),decrease (40 ± 0.0) (1) mm Hg
